Source: patent publication USRE31463E, “Radiopharmaceutical chelates and method of external imaging” (priority 1980, dated 1983)
Read-outs that look alike come from different tables or passages of the source.

Assays:
[1] = mouse, in vivo, iv; for injected dose in the blood: 60 min
[2] = Biodistribution in mice after intravenous injection (organ activities by scintillation counter); details: i.v., 60 minutes

blood clearance [1]	injected dose in the intestines ([1]; 30 min)	injected dose in the blood [1]	Substance	route of elimination / renal clearance [1]	further results
–	–	–	gallium-67 chelate of methyliminodiacetic acid [Example 15]	rapid renal clearance	–
–	–	–	technetium-99m chelate of nitrilotriacetic acid [Example 10]	rapidly clear through the kidneys to urine	injected dose found in the liver and intestines [1]: less than 5%; eliminated in urine ([1]; 1 h): 40%
rapid blood clearance	30%	less than 5%	technetium-99m chelate of N-(o-bromobenzyl) iminodiacetic acid [Example 13]	–	–
rapid blood clearance	–	less than 6%	technetium-99m chelate of 10-carboxydecyliminodiacetic acid [Example 12]	eliminated through both kidneys and liver	persistent activity in organs [1]: persistent activity noted in the liver and lungs
–	12%	–	cobalt-57 chelate of N-[N'-(2,6-dimethylphenyl) carbamoylmethyl] iminodiacetic acid [Example 11]	–	injected dose in the liver ([1]; 30 min): 28%
–	–	–	gallium-67 chelate of 8-hydroxyquinoline [Example 9]	–	injected dose in the blood [2]: 20%; injected dose in the intestines [2]: 13%; injected dose in the liver [2]: 25%
